Measured values taken from patent US11517528B2, “Lipid membrane structure for delivery into siRNA cell” (NATIONAL UNIVERSITY CORPORATION HOKKAIDO UNIVERSITY, priority 2017, dated 2022).

Key:
[1] = tested on: HeLa cells stably expressing dual-luciferase (HeLa-dluc); experiment: in vitro knockdown activity, dual-luciferase assay; format: cell-based
Protocol: Hemolysis activity, in vitro knockdown activity, and in vivo F7 knockdown activity, which are indicators of endosome escape activity, were measured. Regarding the hemolysis activity, mouse erythrocytes and LNPs were mixed in a buffer solution adjusted to pH 6.5, the mixture was incubated at 37° C. for 30 minutes and then centrifuged, and an absorbance of the supernatant at 545 nm was measured. Hemolysis efficiency of each sample was calculated by respectively using a sample to which LNPs were not added and a sample to which Triton X-100 having a final concentration of 0.5% was added, as a negative control and a positive control. Regarding the in vitro knockdown activity, LNPs loaded with siRNA against luciferase were added to HeLa cells stably expressing dual-luciferase (HeLa-dluc) at various concentrations, and knockdown efficiency was calculated 24 hours after the addition by dual-luciferase assay. […] Regarding the in vivo F7 knockdown activity, 0.1 mg siRNA/kg of LNPs loaded with siRNA against F7 were intravenously administered to an ICR mouse (4 weeks old, female), and F7 enzyme activity in plasma was measured 24 hours after the administration. Each activity against pKa was plotted (FIG. 3).
The influence of hydrophobic scaffolds on siRNA introduction activity of small LNPs with an average particle diameter of about 35 nm was examined. […]

[2] = cationic lipid content in liver and spleen by LC/MS; format: in vivo, mouse; settings: 1 mg siRNA/kg of LNP i.v., ICR mice; until 72 hours
Protocol: 1 mg siRNA/kg of Each LNP was intravenously administered to ICR mice (4 weeks old, female), the liver and spleen were recovered over time, and each cationic lipid was quantitatively determined by LC/MS.

Q: For CCCCC/C=C\C/C=C\CCCCCCCCC(O)(CCCCCCCC/C=C\C/C=C\CCCCC)CCCCOC(=O)C1CCN(C)CC1 [CL15A, (14Z,17Z)-5-Hydroxy-5-((9Z,12Z)-octadeca-9,12-dien-1-yl)tricosa-14,17-dien-1-yl 1-methylpiperidine-4-carboxylate], which luciferase knockdown efficiency ([1]; 30 nM siRNA, small LNPs, average particle diameter about 35 nm, HeLa-dluc) is on record?
A: Its luciferase knockdown efficiency is ≤ 30%.

Q: For CCCCCCCC/C=C\CCCCCCCC(=O)OCCCCCCC(O)(CCCCCCOC(=O)CCCCCCC/C=C\CCCCCCCC)CCCCOC(=O)C1CCN(C)CC1 [CL15H6, 7-Hydroxy 7-(4-((1-methylpiperidine-4-carbonyl)oxy)butyl)tridecane-1,13-diyl dioleate], which “in vitro knockdown activity” value ([1]; LNPs loaded with siRNA against luciferase, 24 hours, compared with CL15A) is on record?
A: Its value is “about three times higher activity than that of CL15A”.

Q: With CCCCC/C=C\C/C=C\CCCCCCCCOC1(OCCCCCCCC/C=C\C/C=C\CCCCC)CCN(C)CC1 [YSK05] as the molecule, how does the “tissue content of cationic lipid in liver and spleen over time” value [2] read?
A: The value was “almost constant until 72 hours after the administration”.
